# Source: patent publication US9371319B2, “Pyrrolopyridineamino derivatives as MPS1 inhibitors” (priority 2011, dated 2016)
# pIC50: −log10 of the molar value.
# Biological target: T1, full length MPS1 (Homo sapiens, UniProt P33981)
# T1 sequence (P33981 1-857): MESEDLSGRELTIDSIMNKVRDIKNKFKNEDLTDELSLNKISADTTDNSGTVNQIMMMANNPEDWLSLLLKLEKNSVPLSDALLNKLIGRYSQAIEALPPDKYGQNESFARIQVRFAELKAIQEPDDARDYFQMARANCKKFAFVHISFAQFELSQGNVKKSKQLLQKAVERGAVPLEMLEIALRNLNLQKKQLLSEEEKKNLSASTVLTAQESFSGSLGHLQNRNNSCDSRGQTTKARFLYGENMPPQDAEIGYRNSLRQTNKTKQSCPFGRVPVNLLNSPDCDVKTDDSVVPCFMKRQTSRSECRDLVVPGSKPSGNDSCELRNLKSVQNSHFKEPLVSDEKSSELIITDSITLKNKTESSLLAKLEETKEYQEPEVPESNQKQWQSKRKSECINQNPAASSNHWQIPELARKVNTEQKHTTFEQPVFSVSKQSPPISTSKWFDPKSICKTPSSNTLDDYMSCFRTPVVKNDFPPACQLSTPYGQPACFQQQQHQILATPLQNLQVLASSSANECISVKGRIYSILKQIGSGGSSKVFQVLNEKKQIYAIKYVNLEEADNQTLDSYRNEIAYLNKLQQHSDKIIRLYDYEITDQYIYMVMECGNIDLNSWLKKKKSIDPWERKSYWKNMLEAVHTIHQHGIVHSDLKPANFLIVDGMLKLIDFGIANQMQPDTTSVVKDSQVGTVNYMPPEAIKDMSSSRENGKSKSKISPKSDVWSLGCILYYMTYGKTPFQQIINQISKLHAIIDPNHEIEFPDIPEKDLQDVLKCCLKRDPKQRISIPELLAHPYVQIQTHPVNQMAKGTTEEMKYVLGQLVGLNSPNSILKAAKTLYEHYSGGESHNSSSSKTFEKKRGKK
# Experiment: biochemical
row,pIC50,SMILES
1,6.46,Cc1cc(Cn2c(-c3cnn(C)c3)cc3cnc(Nc4ccc(C(=O)N(C)C)cc4Cl)cc32)no1 [Example 90]
2,7.28,Cc1nc(C)c(-c2ccc(Nc3cc4c(cn3)cc(-c3cnn(C)c3)n4C(=O)OC(C)(C)C)c(Cl)c2)s1 [Example 45]
3,7.77,CC(C)OC(=O)n1c(-c2cnn(C)c2)cc2cnc(Nc3ccc(-c4cnn(C)c4)cc3Cl)cc21 [Example 76]
4,8.52,CN(C)C(=O)c1ccc(Nc2cc3c(cn2)cc(-c2cnn(C)c2)n3C(=O)OC2CCCC2)c(Cl)c1 [Example 72]
